Here are results for 25 compounds from PubChem BioAssay AID328 (DTP/NCI, 2004).

The test system of the assay is BDF1 mice, P388 leukemia ip, median survival T/C. Briefly: NCI In Vivo Anticancer Drug Screen. Data for tumor model P388 Leukemia (intraperitoneal) in B6D2F1 (BDF1) mice. The following applies: endpoint: median survival time, higher = longer survival. In outline: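 Read-out is survival of treated animals expressed relative to the vehicle group, as a T/C ratio.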
Where [1] appears, read: dose: 100.0 mg/kg/injection, schedule: Q01DX009 (ip), vehicle: saline with Tween-80.
The mark [2] stands for this setting: dose: 100.0 mg/kg/injection, schedule: Q04DX003 (ip), vehicle: saline with Tween-80.
Where [3] appears, read: dose: 200.0 mg/kg/injection, schedule: Q01DX009 (ip), vehicle: saline with Tween-80.
Setting [4] is: dose: 200.0 mg/kg/injection, schedule: Q04DX003 (ip), vehicle: saline with Tween-80.
The mark [5] stands for this setting: dose: 400.0 mg/kg/injection, schedule: Q04DX003 (ip), vehicle: saline with Tween-80.
Where [6] appears, read: dose: 2.5 mg/kg/injection, schedule: Q01DX010 (ip), vehicle: saline.
Setting [7] is: dose: 5.0 mg/kg/injection, schedule: Q01DX010 (ip), vehicle: saline.
Setting [8] is: dose: 10.0 mg/kg/injection, schedule: Q01DX010 (ip), vehicle: saline.
Where [9] appears, read: dose: 20.0 mg/kg/injection, schedule: Q01DX010 (ip), vehicle: saline.
The mark [10] stands for this setting: dose: 100.0 mg/kg/injection, schedule: Q04DX003 (ip), vehicle: Klucel (hydroxypropylcellulose) (HPC).
The mark [11] stands for this setting: dose: 200.0 mg/kg/injection, schedule: Q04DX003 (ip), vehicle: Klucel (hydroxypropylcellulose) (HPC).
The mark [12] stands for this setting: dose: 400.0 mg/kg/injection, schedule: Q04DX003 (ip), vehicle: Klucel (hydroxypropylcellulose) (HPC).
[13] abbreviates: dose: 50.0 mg/kg/injection, schedule: Q01DX009 (ip), vehicle: saline with Tween-80.
Where [14] appears, read: dose: 50.0 mg/kg/injection, schedule: Q04DX003 (ip), vehicle: saline.
The mark [15] stands for this setting: dose: 100.0 mg/kg/injection, schedule: Q01DX009 (ip), vehicle: Klucel (hydroxypropylcellulose) (HPC).
Setting [16] is: dose: 200.0 mg/kg/injection, schedule: Q01DX009 (ip), vehicle: Klucel (hydroxypropylcellulose) (HPC).
[17] abbreviates: dose: 400.0 mg/kg/injection, schedule: Q01DX009 (ip), vehicle: Klucel (hydroxypropylcellulose) (HPC).
Where [18] appears, read: dose: 12.5 mg/kg/injection, schedule: Q01DX009 (ip), vehicle: saline.

“And” between values parts separate entries of the source, which are not always exact repeats. Identical values can stand only once. Inconclusive results and toxic doses are left out.

Regarding `COc1ccc(C(=O)C(C)C=O)c(OCc2ccccc2)c1OC` (configuration not stated), the T/C by setting is: under setting [1], 95 % of control; under setting [2], 104 % of control; under setting [3], 113 % of control; under setting [4], 113 % of control; under setting [5], 90 % of control.

Consider `C=C1CC2(CC(C)(C)CC(C)(C)C2)OC1=O`, for which the T/C is, setting by setting: under setting [2], 97 % of control; under setting [4], 112 % of control; under setting [5], 106 % of control.

Consider `COC(=O)/C=C/CBr`, for which the T/C under setting [6] is 110 % of control, the T/C under setting [7] was 110 % of control, the T/C under setting [8] was 110 % of control and the T/C under setting [9] was 115 % of control.

`Nc1ccc(OCc2ccc(C(=O)Nc3cccc(S(=O)(=O)F)c3)cc2)c(Cl)c1`: the T/C by setting is: under setting [1], 91 % of control; under setting [10], 100 % of control; under setting [3], 91 % of control; under setting [11], 100 % of control; (dose: 400.0 mg/kg/injection, schedule: Q01DX009 (ip), vehicle: saline with Tween-80) 100 % of control; under setting [12], 100 % of control.

For `ClCc1ccc2ccccc2n1`, the T/C is, setting by setting: under setting [13], 113 % of control; under setting [1], 122 % of control; (dose: 132.0 mg/kg/injection, schedule: Q01DX009 (ip), vehicle: saline with Tween-80) 113 % of control; under setting [3], 122 % of control; (dose: 300.0 mg/kg/injection, schedule: Q01DX009 (ip), vehicle: saline with Tween-80) 104 % of control.

On to `CCC(CC)c1ccccn1`, for which the T/C (dose: 50.0 mg/kg/injection, schedule: Q01DX009 (ip), vehicle: saline) is 104 % of control; the T/C (dose: 100.0 mg/kg/injection, schedule: Q01DX009 (ip), vehicle: carboxymethylcellulose (CMC)) is 99 % of control; the T/C (dose: 100.0 mg/kg/injection, schedule: Q01DX009 (ip), vehicle: saline) is 105 % of control; the T/C (dose: 200.0 mg/kg/injection, schedule: Q01DX009 (ip), vehicle: carboxymethylcellulose (CMC)) is 108 % of control; the T/C (dose: 200.0 mg/kg/injection, schedule: Q01DX009 (ip), vehicle: saline) is 113 % of control.

Regarding `CCCCCCCCCCCC[n+]1ccc(C)cc1C`, the T/C is, setting by setting: (dose: 62.0 micrograms/kg/injection, schedule: Q01DX009 (ip), vehicle: saline) 107 % of control; (dose: 125.0 micrograms/kg/injection, schedule: Q01DX009 (ip), vehicle: saline) 102 % of control; (dose: 250.0 micrograms/kg/injection, schedule: Q01DX009 (ip), vehicle: saline) 113 % of control; (dose: 500.0 micrograms/kg/injection, schedule: Q01DX009 (ip), vehicle: saline) 116 % of control.

In the case of `CCOC(=O)C1=C(N)CC(c2ccc(C#N)cc2)NC1c1cccc(OC)c1O` (configuration not stated), the T/C is 105 % of control (dose: 100.0 mg/kg/injection, schedule: Q01DX001 (ip), vehicle: saline with Tween-80) and 111 % of control (dose: 200.0 mg/kg/injection, schedule: Q01DX001 (ip), vehicle: saline with Tween-80).

In the case of `CN1CCN=C1c1ccc(NC(=O)c2ccc(C(=O)Nc3ccc(C4=NCCN4C)cc3)cc2)cc1`, the T/C (dose: 3.13 mg/kg/injection, schedule: Q04DX003 (ip), vehicle: saline) is 100 % of control; the T/C (dose: 4.0 mg/kg/injection, schedule: Q01DX009 (ip), vehicle: saline) is 213 % of control; the T/C (dose: 6.0 mg/kg/injection, schedule: Q01DX009 (ip), vehicle: saline) was 240 % of control; the T/C (dose: 6.25 mg/kg/injection, schedule: Q04DX003 (ip), vehicle: saline) is 95 % of control; the T/C (dose: 9.0 mg/kg/injection, schedule: Q01DX009 (ip), vehicle: saline) was 245 % of control.

On to `C/C(N=Nc1ccccc1[N+](=O)[O-])=N\Nc1ccccc1`, for which the T/C is, setting by setting: under setting [10], 122 % of control; under setting [11], 122 % of control; under setting [12], 113 % of control.

Take `C=CCOB(OCC=C)OCC=C`: the T/C is 108 % of control (dose: 12.5 mg/kg/injection, schedule: Q04DX003 (ip), vehicle: saline); 100 % of control (dose: 25.0 mg/kg/injection, schedule: Q04DX003 (ip), vehicle: saline); 91 % of control under setting [14].

Regarding `O=S(=O)(O)c1ccncc1`, the T/C (dose: 100.0 mg/kg/injection, schedule: Q01DX001 (ip), vehicle: saline) is 116 % of control; the T/C (dose: 200.0 mg/kg/injection, schedule: Q01DX001 (ip), vehicle: saline) is 104 % of control; the T/C (dose: 400.0 mg/kg/injection, schedule: Q01DX001 (ip), vehicle: saline) is 87 % of control.

Take `Cc1n(C(C)C)c2c([n+]1C)C(=O)c1ccccc1C2=O`: the T/C was 118 % of control (dose: 1.25 mg/kg/injection, schedule: Q01DX009 (ip), vehicle: alcohol) and 122 % of control (dose: 2.5 mg/kg/injection, schedule: Q01DX009 (ip), vehicle: alcohol).

On to `CC(C#N)(C#N)N=Nc1ccc(Cl)cc1Cl`, for which the T/C under setting [1] was 116 % of control.

For the compound `CCCCc1[nH]nc2c1C(=O)C(Nc1ccccc1)=CC2=O`, the T/C is 103 % of control under setting [2], 100 % of control under setting [4] and 100 % of control under setting [5].

In the case of `Cc1c(C)c(Cl)c(C)c(Cl)c1O`, the T/C runs as follows: under setting [15], 109 % of control; under setting [10], 100 % of control; under setting [16], 100 % of control; under setting [11], 104 % of control; under setting [17], 109 % of control; under setting [12], 100 % of control.

`C1CC[N-]CC1.C1CC[N-]CC1.CS(C)=O.[Cl][Rh]([Cl])[Cl]`: the T/C by setting is: (dose: 8.3 mg/kg/injection, schedule: Q01DX009 (ip), vehicle: saline) 150 % of control; under setting [18], 150 % of control and 155 % of control; (dose: 18.7 mg/kg/injection, schedule: Q01DX009 (ip), vehicle: saline) 150 % of control.

In the case of `O=C(OC12CCCCC1CCCC2)c1ccc([N+](=O)[O-])cc1` (configuration not stated), the T/C under setting [2] is 110 % of control, the T/C under setting [4] is 100 % of control and the T/C under setting [5] is 100 % of control.

As for `CC(C)c1cccc(C(C)C)c1NC(=O)N1CCOCC1`, the T/C is 100 % of control under setting [13], 93 % of control under setting [1] and 90 % of control under setting [3].

Regarding `C=CC(N)C(=O)O` (configuration not stated), the T/C by setting is: (dose: 100.0 mg/kg/injection, schedule: Q04DX002 (ip), vehicle: saline with Tween-80) 117 % of control; (dose: 200.0 mg/kg/injection, schedule: Q04DX002 (ip), vehicle: saline with Tween-80) 108 % of control; (dose: 400.0 mg/kg/injection, schedule: Q04DX002 (ip), vehicle: saline with Tween-80) 100 % of control.

Turning to `N#Cc1ccc(/C=C/C(=O)c2ccccc2)cc1`, the T/C runs as follows: under setting [15], 91 % of control; under setting [16], 116 % of control; under setting [17], 107 % of control.

As to `Cc1ccc(C[P+](c2ccccc2)(c2ccccc2)c2ccccc2)cc1`, the T/C reads like this: under setting [6], 114 % of control; under setting [7], 114 % of control; under setting [8], 104 % of control.

As for `CCCCCCCCCCCCCCCCN(C)Cc1ccccc1`, the T/C reads like this: (dose: 100.0 mg/kg/injection, schedule: Q04DX003 (ip), vehicle: saline) 107 % of control; (dose: 200.0 mg/kg/injection, schedule: Q04DX003 (ip), vehicle: saline) 108 % of control; (dose: 400.0 mg/kg/injection, schedule: Q04DX003 (ip), vehicle: saline) 116 % of control.

For the compound `CC1CCOS(=O)O1` (configuration not stated), the T/C runs as follows: under setting [8], 100 % of control; under setting [9], 95 % of control and 104 % of control; (dose: 40.0 mg/kg/injection, schedule: Q01DX010 (ip), vehicle: saline) 100 % of control and 104 % of control.

For the compound `CS(=O)(=O)OCCCCCOS(C)(=O)=O`, the T/C was 95 % of control under setting [18]; 100 % of control (dose: 25.0 mg/kg/injection, schedule: Q01DX009 (ip), vehicle: saline); 113 % of control under setting [14].
